Here are results for 4 molecules from PubChem BioAssay (NCI).

Test systems include MALME-3M melanoma; IGROV1 ovarian; CCRF-CEM leukemia; HOP-62 NSCLC; HCC-2998 colon; SF-295 CNS; HCT-116 colon; SK-OV-3 ovarian; OVCAR-3 ovarian; UO-31 renal; SN12C renal; OVCAR-5 ovarian; A549 NSCLC; HCT-15 colon; NCI/ADR-RES ovarian; K-562 leukemia; UACC-257 melanoma; RPMI-8226 leukemia; SR leukemia; TK-10 renal.
Assay in all cases: DTP human tumour cell line panel, 48 h

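Compound exposure: 48 hours, 5 concentrations, 96-well plates. At the TGI there is no net growth.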

Turning to `Nc1ccc2cc(S(=O)(=O)O)cc(O)c2c1N=Nc1ccc(NC(=O)Nc2ccc(N=Nc3c(N)ccc4cc(S(=O)(=O)O)cc(O)c34)c(S(=O)(=O)O)c2)cc1S(=O)(=O)O`, the TGI in the test with MALME-3M melanoma, in the test on IGROV1 ovarian, with CCRF-CEM leukemia, in the test with HOP-62 NSCLC, in the test with HCC-2998 colon and in the test on SF-295 CNS was > 100 µM in each case. For the same molecule, the TGI in the test with HCT-116 colon, in the test on SK-OV-3 ovarian, in the test with OVCAR-3 ovarian, with UO-31 renal, in the test with SN12C renal and in the test on OVCAR-5 ovarian was > 100 µM in each case. Also, the TGI in the test on A549 NSCLC, in the test with HCT-15 colon, in the test on NCI/ADR-RES ovarian, in the test with K-562 leukemia and in the test with UACC-257 melanoma was > 100 µM throughout.

As to `CN1C[C@H]2[C@@H](C1=O)[C@H](c1ccc([N+](=O)[O-])cc1)ON2C`, the total growth inhibition concentration (TGI) in the test on RPMI-8226 leukemia, in the test with SR leukemia, with IGROV1 ovarian, in the test with CCRF-CEM leukemia, in the test on HOP-62 NSCLC and in the test on HCC-2998 colon was > 100 µM each time. The concentration for total growth inhibition (TGI) in the test with SF-295 CNS, in the test with HCT-116 colon, in the test with SK-OV-3 ovarian, in the test with OVCAR-3 ovarian, in the test on TK-10 renal and with UO-31 renal was > 100 µM throughout. For the same molecule, the TGI with SN12C renal, in the test with OVCAR-5 ovarian, in the test on A549 NSCLC, with HCT-15 colon, in the test on NCI/ADR-RES ovarian and in the test with K-562 leukemia was > 100 µM each time. The total growth inhibition concentration (TGI) with UACC-257 melanoma was > 100 µM.

As to `COc1cc(C2C(Cl)C(=O)N2NC(=O)c2ccc(NC(C)=O)cc2)cc(Br)c1O` (configuration not stated), the total growth inhibition concentration (TGI) with RPMI-8226 leukemia, with SR leukemia, in the test on MALME-3M melanoma, in the test with IGROV1 ovarian, with CCRF-CEM leukemia and in the test with HOP-62 NSCLC was > 100 µM throughout. The total growth inhibition concentration (TGI) in the test with HCC-2998 colon, in the test on SF-295 CNS, in the test on HCT-116 colon, with SK-OV-3 ovarian, with OVCAR-3 ovarian and with TK-10 renal was > 100 µM in each case. The TGI in the test with UO-31 renal, in the test on OVCAR-5 ovarian, in the test with A549 NSCLC, in the test with K-562 leukemia and with UACC-257 melanoma was > 100 µM in each case.

As for `COc1ccc(N2C(=O)C3c4[nH]c5ccccc5c4C4CCCCCCCC4C3C2=O)cc1` (configuration not stated), the TGI is > 10 µM in the test with RPMI-8226 leukemia; > 10 µM with SR leukemia; > 10 µM in the test with MALME-3M melanoma; > 10 µM in the test on IGROV1 ovarian; 8.35 µM in the test on CCRF-CEM leukemia; > 10 µM in the test on HOP-62 NSCLC. Moreover, the TGI in the test with HCC-2998 colon, in the test with SF-295 CNS, in the test with HCT-116 colon, with SK-OV-3 ovarian, in the test with OVCAR-3 ovarian and with TK-10 renal was > 10 µM in each case. The concentration for total growth inhibition (TGI) in the test on UO-31 renal, in the test on SN12C renal, in the test with OVCAR-5 ovarian, in the test with A549 NSCLC, with HCT-15 colon and with NCI/ADR-RES ovarian was > 10 µM throughout. Further, the TGI in the test with K-562 leukemia was > 10 µM.

Usually TGI stands for the concentration giving total growth inhibition.
